The test system of series [1] is Haemonchus contortus. Briefly: Anti-helmintic activity against fourth stage of Haemonchus contortus larvae assessed as reduction in development of L4 stage incubated for 72 hrs followed by reincubation in humidified environment for 4 days. The class given is functional, organism-based.
Series [2] has as its system Haemonchus contortus. The series is described as follows: Anti-helmintic activity against third-stage Haemonchus contortus larvae assessed as inhibition of xL3 motility measured after 72 hrs. In kind it is functional, organism-based.
In series [3] the test system is MCF-10A. The series is described as follows: Cytotoxicity against human MCF-10A cells assessed as inhibition of cell viability measured after 48 hrs by DAPI staining based analysis.
Series [4] is described as follows: Cytotoxicity against human MCF-10A cells assessed as inhibition of cell viability at 50 uM measured after 48 hrs by DAPI staining based analysis. The settings on record: read-out: INH.
The mark [5] stands for this setting: Haemonchus contortus, 72 h, read-out: IC50.

Experimental findings from ChEMBL document CHEMBL4765257, “Synthesis and structure-activity relationship study of pyrrolidine-oxadiazoles as anthelmintics against Haemonchus contortus” (Eur J Med Chem, 2020) are described below.

What is called IC50 is the concentration that inhibits the measured activity by half. As to `O=C(Nc1ccc(O)cc1)N1CCC[C@H]1c1nc(-c2ccccc2)no1`, the IC50 in series [1] and in series [2] (setting [5]) was above 100 µM in each case.
In the case of `COc1ccc(-c2noc([C@@H]3CCCN3C(=O)Nc3ccc(Cl)cc3)n2)cc1`, the results for the IC50 in series [3], in series [1] and in series [2] (setting [5]) were above 50 µM, above 100 µM and 50 µM, respectively. Besides, the cytotoxicity at 48 h, 50 µM in series [4] was 13%.
With `O=C(Nc1ccc(Cl)cc1)N1CCC[C@H]1c1nc(-c2ccc(F)cc2)no1`, the half-inhibitory concentration (IC50) in series [3] was above 50 µM; in series [1] it was 19 µM; in series [2] (setting [5]), 1.3 µM. Further, in series [4], the cytotoxicity at 48 h, 50 µM is 22%.
For `COc1ccc(NC(=O)N2CCC[C@H]2c2nc(-c3ccccc3)no2)cc1`, the IC50 in series [1] and in series [2] (setting [5]) was above 100 µM in each case.
For `CS(=O)(=O)c1ccc(NC(=O)N2CCC[C@H]2c2nc(-c3ccccc3)no2)cc1`, the IC50 in series [1] and in series [2] (setting [5]) was above 100 µM in each case.
`O=C(Nc1ccc(Cl)cc1)N1CCC[C@H]1c1nc(-c2ccc(O)cc2)no1`: the IC50 in series [1] and in series [2] (setting [5]) was above 100 µM throughout.
As for `O=C(Nc1cccc(F)c1)N1CCC[C@H]1c1nc(-c2ccccc2)no1`, the concentration for half-maximal inhibition (IC50) in series [1] and in series [2] (setting [5]) was above 100 µM each time.
In the case of `O=C(Nc1ccc(Cl)cc1)N1CCC[C@H]1c1nc(-c2ccccc2O)no1`, the 50% inhibitory concentration (IC50) in series [1] and in series [2] (setting [5]) was above 100 µM throughout.
Consider `Cc1ccc(NC(=O)N2CCC[C@H]2c2nc(-c3ccccc3)no2)cc1`, for which the concentration for half-maximal inhibition (IC50) in series [1] and in series [2] (setting [5]) was above 100 µM in each case.
On to `O=C(Nc1ccc(Cl)cc1)N1CCC[C@@H]1c1nc(-c2ccccc2)no1`, for which the IC50 in series [1] and in series [2] (setting [5]) was above 100 µM each time.
For the molecule `N#Cc1ccccc1NC(=O)N1CCC[C@H]1c1nc(-c2ccccc2)no1`, the IC50 in series [1] and in series [2] (setting [5]) was above 100 µM in each case.
Turning to `O=C(Nc1cccc(Cl)c1)N1CCC[C@H]1c1nc(-c2ccccc2)no1`, the 50% inhibitory concentration (IC50) in series [1] and in series [2] (setting [5]) was above 100 µM in each case.
In the case of `Cc1ccccc1-c1noc([C@@H]2CCCN2C(=O)Nc2ccc(Cl)cc2)n1`, the 50% inhibitory concentration (IC50) was above 50 µM in series [3], 50 µM in series [1] and 0.78 µM in series [2] (setting [5]). In addition, the cytotoxicity at 48 h, 50 µM in series [4] stood at 36%.
For `O=C(Nc1ccccc1O)N1CCC[C@H]1c1nc(-c2ccccc2)no1`, the IC50 in series [1] and in series [2] (setting [5]) was above 100 µM each time.
For the molecule `N#Cc1ccc(-c2noc([C@@H]3CCCN3C(=O)Nc3ccc(Cl)cc3)n2)cc1`, the IC50 in series [3] is above 50 µM; in series [1] it was above 100 µM; in series [2] (setting [5]), above 100 µM. In addition, in series [4], the cytotoxicity at 48 h, 50 µM was 11%.
As for `O=C(Nc1ccc(OC(F)(F)F)cc1)N1CCC[C@H]1c1nc(-c2ccccc2)no1`, the concentration for half-maximal inhibition (IC50) in series [3] was above 50 µM; in series [1], 13 µM; in series [2] (setting [5]) it was 4.2 µM. Moreover, the cytotoxicity at 48 h, 50 µM in series [4] was 18%.
For `O=C(Nc1ccc(I)cc1)N1CCC[C@H]1c1nc(-c2ccccc2)no1`, the concentration for half-maximal inhibition (IC50) in series [3] was above 50 µM; in series [1], 3.2 µM; in series [2] (setting [5]), 5.6 µM. Further, in series [4], the cytotoxicity at 48 h, 50 µM came to 8%.
`Cc1ccccc1NC(=O)N1CCC[C@H]1c1nc(-c2ccccc2)no1`: the half-inhibitory concentration (IC50) in series [1] and in series [2] (setting [5]) was above 100 µM in each case.
As to `O=C(Nc1ccccc1I)N1CCC[C@H]1c1nc(-c2ccccc2)no1`, the half-maximal inhibitory concentration (IC50) in series [1] and in series [2] (setting [5]) was above 100 µM each time.
Turning to `COc1cccc(NC(=O)N2CCC[C@H]2c2nc(-c3ccccc3)no2)c1`, the IC50 in series [1] and in series [2] (setting [5]) was above 100 µM throughout.
On to `O=C(Nc1ccc(Cl)cc1)N1CCC[C@H]1c1nc(-c2ccc(Br)cc2)no1`, for which the IC50 is above 50 µM in series [3], above 100 µM in series [1] and “Active” in series [2]. In addition, the cytotoxicity at 48 h, 50 µM in series [4] was found to be 30%.
As to `COc1ccccc1-c1noc([C@@H]2CCCN2C(=O)Nc2ccc(Cl)cc2)n1`, the half-inhibitory concentration (IC50) in series [1] and in series [2] (setting [5]) was above 100 µM each time.
For the molecule `O=C(Nc1ccccc1Br)N1CCC[C@H]1c1nc(-c2ccccc2)no1`, the IC50 in series [1] and in series [2] (setting [5]) was above 100 µM in each case.
Take `CN(C)S(=O)(=O)c1ccc(NC(=O)N2CCC[C@H]2c2nc(-c3ccccc3)no2)cc1`: the IC50 in series [1] and in series [2] (setting [5]) was above 100 µM each time.
For the molecule `COc1cccc(-c2noc([C@@H]3CCCN3C(=O)Nc3ccc(Cl)cc3)n2)c1`, the IC50 in series [1] and in series [2] (setting [5]) was above 100 µM throughout.
On to `Cc1cccc(-c2noc([C@@H]3CCCN3C(=O)Nc3ccc(Cl)cc3)n2)c1`, for which the IC50 in series [3] is above 50 µM; in series [1], above 100 µM; in series [2] (setting [5]), 1.9 µM. For the same molecule, the cytotoxicity at 48 h, 50 µM in series [4] came to 29%.
For `N#Cc1cccc(NC(=O)N2CCC[C@H]2c2nc(-c3ccccc3)no2)c1`, the IC50 in series [1] and in series [2] (setting [5]) was above 100 µM in each case.
For `O=C(Nc1ccc([N+](=O)[O-])cc1)N1CCC[C@H]1c1nc(-c2ccccc2)no1`, the 50% inhibitory concentration (IC50) is above 50 µM in series [3], 50 µM in series [1] and 50 µM in series [2] (setting [5]). Further, in series [4], the cytotoxicity at 48 h, 50 µM worked out at 22%.
As for `O=C(Nc1cccc(O)c1)N1CCC[C@H]1c1nc(-c2ccccc2)no1`, the half-inhibitory concentration (IC50) in series [1] and in series [2] (setting [5]) was above 100 µM throughout.
For `O=C(Nc1ccncc1)N1CCC[C@H]1c1nc(-c2ccccc2)no1`, the 50% inhibitory concentration (IC50) in series [1] and in series [2] (setting [5]) was above 100 µM each time.
Take `O=C(Nc1ccccc1)N1CCC[C@H]1c1nc(-c2ccccc2)no1`: the IC50 in series [1] and in series [2] (setting [5]) was above 100 µM in each case.
Turning to `C[C@](C#N)(COc1cc(C#N)ccc1C(F)(F)F)NC(=O)c1ccc(SC(F)(F)F)cc1` [MONEPANTEL], the concentration for half-maximal inhibition (IC50) in series [3] was determined as 26.9 µM; in series [1], 0.075 µM; in series [2] (setting [5]), 0.16 µM. Besides, in series [4], the cytotoxicity at 48 h, 50 µM is 99%.
Turning to `O=C(Nc1ccccc1Cl)N1CCC[C@H]1c1nc(-c2ccccc2)no1`, the half-inhibitory concentration (IC50) in series [1] and in series [2] (setting [5]) was above 100 µM throughout.
As to `O=C(Nc1cccnc1)N1CCC[C@H]1c1nc(-c2ccccc2)no1`, the IC50 in series [1] and in series [2] (setting [5]) was above 100 µM in each case.
Consider `CC(C)c1ccc(NC(=O)N2CCC[C@H]2c2nc(-c3ccccc3)no2)cc1`, for which the IC50 in series [1] and in series [2] (setting [5]) was above 100 µM each time.
`O=C(Nc1cccc(Br)c1)N1CCC[C@H]1c1nc(-c2ccccc2)no1`: the IC50 in series [1] and in series [2] (setting [5]) was above 100 µM in each case.
Consider `COc1ccccc1NC(=O)N1CCC[C@H]1c1nc(-c2ccccc2)no1`, for which the concentration for half-maximal inhibition (IC50) in series [1] and in series [2] (setting [5]) was above 100 µM in each case.
Consider `CC(=O)c1ccccc1NC(=O)N1CCC[C@H]1c1nc(-c2ccccc2)no1`, for which the IC50 in series [1] and in series [2] (setting [5]) was above 100 µM in each case.
Turning to `O=C(Nc1ccccc1F)N1CCC[C@H]1c1nc(-c2ccccc2)no1`, the IC50 in series [1] and in series [2] (setting [5]) was above 100 µM in each case.
Take `O=C(Nc1ccc(Cl)cc1)N1CCCC1c1nc(-c2ccccc2)no1` (stereo not drawn): the IC50 stood at 0.31 µM in series [1] and 3.46 µM in series [2] (setting [5]).
The matching figures for `Cc1cccc(NC(=O)N2CCC[C@H]2c2nc(-c3ccccc3)no2)c1`: above 100 µM and above 100 µM.
On the same counts, the results for `O=C(Nc1ccc(F)cc1)N1CCC[C@H]1c1nc(-c2ccccc2)no1` are above 100 µM and above 100 µM.
The matching figures for `CC(=O)c1ccc(NC(=O)N2CCC[C@H]2c2nc(-c3ccccc3)no2)cc1`: above 100 µM and above 100 µM.
For the molecule `CC(=O)c1cccc(NC(=O)N2CCC[C@H]2c2nc(-c3ccccc3)no2)c1`, the IC50 in series [1] and in series [2] (setting [5]) was above 100 µM throughout.
